# Measurements as given in patent US20250326799A1, “AGENTS INDUCING VASCULARISATION” (Coegin Pharma AB, priority 2022, published 2025).
# Entries after “also recorded” stand apart in the source; their conditions may differ.
# Key:
# Format in all cases: cell-based
# [1] = tested on: human coronary artery smooth muscle cells (HCASMCs); assay: BrdU cell proliferation in HCASMCs; conditions: for vascular smooth muscle cell proliferation (DNA synthesis, uptake of BrdU, O.D. 450 nm): 10 nM, 100 nM, 1000 nM, compared to control; for smooth muscle cell proliferation (BrdU incorporation): addition of the peptide
# Protocol: Cell proliferation was evaluated with BrdU Cell Proliferation Elisa Kit (Abcam, UK). After incubation at 37° C. overnight with respective complete medium, for NRP-1 knock down-relative experiments, HUVECs and HCASMCs on 96-well plates were transfected with siRNA/siRNA-NC directly; for test polypeptide stimulations, HUVECs and HCASMCs were starved with low-serum condition for additional 24 hours and 48 hours before treatments. At 32 hours after transfection or polypeptide stimulations, cells were cultured with BrdU reagent for another 16 hours to determine cell proliferation. Subsequent steps were performed as manufacturer's instructions and data were read by Wallac 1420 Victor 2 (Perkin Elmer, USA).
# (§1) The effect of FOL-026 peptide treatment on smooth muscle cell proliferation (FIG. 25a) and apoptosis (FIG. 25c) induced with low-oxygen condition was evaluated with the uptake of BrdU (n=10 per group) and active caspase-3/-7 (n=6-8 per group) separately. H2O2 measurement (FIG. 25b) of smooth muscle cells pre-incubated with FOL-26 peptides after 50 ug/ml oxidized Low-density Lipoprotein (oxLDL) stimulation for 2 hours (n=6-7 per group). Representative images of scratch wound assay in vitro are shown (FIG. 26a) and the ability of wound healing (FIG. 26b) in human coronary smooth muscle cells (HCASMCs) treated with FOL-026 peptides was measured by image J software (n=10 per group). Scale bar=150 um. Data are presented as means±SEM and acquired from 3 to 4 independent replicate tests. *P<0.05, **P<0.01, ***P<0.001, ****P<0.0001 by one-way ANOVA and Dunnett's post-hoc test.
# (§2) The effect of FOL-005 peptide on smooth muscle cell proliferation (FIG. 30a) was determined with BrdU incorporation in peptide-treated human coronary smooth muscle cells (HCASMCs). Scratch wound assay (FIG. 30b) of HCASMCs incubated with FOL-005 peptides for 5 hours was measured by image J software (n=10-12 per group) and representative pictures of smooth muscle cell migration into an in vitro scratch injury were shown (FIG. 30c). Scale bar=150 um.
# [2] = tested on: Human umbilical cord endothelial cells (HUVECs); assay: sFasL-induced apoptosis, caspase 3 and 7 activation, HUVECs; conditions: 10 nM, 100 nM, 1000 nM
# Protocol: Human Umbilical Vein Endothelial Cells (HUVECs) and Human Coronary Artery Smooth Muscle Cells (HCASMCs) were purchased from Thermo Fisher. Cells were grown in Medium 200 containing 2% Low Serum Growth Supplement and Medium 231 with 5% Smooth Muscle Growth Supplement (Invitrogen, CA, USA) respectively with addition of Antibiotic-Antimycotic (1%, Invitrogen, CA, USA). Test polypeptide and sFasL (PeproTech, NJ, USA) were dissolved in the respective complete medium.
# Caspase-Glo 3/7 Assay (Promega, USA) was performed to evaluate cell apoptosis. HUVECs and HCASMCs were seeded into 96-well plates at a density of 3-5×10^3 per well. For additional NRP-1 on cells transfected siRNA, NRP-1 was added 24 hours after transfection and the mixture of Caspase-Glo 3/7 was added 48 hours after polypeptide stimulations. Subsequent steps were performed as manufacturer's instructions using the FOL26 and FOL56 as test compounds. Data were read by Wallac 1420 Victor 2 (Perkin Elmer, USA).
# [3] = tested on: human coronary smooth muscle cells (HCASMCs); assay: In vitro scratch wound closure, HCASMCs; conditions: for wound closure (scratch wound assay): HCASMCs
# Protocol: as §1
# qRT-PCR analysis of NRP-1 mRNA expression in HCASMCs with small interfering RNA transfection for 48 hours (n=4) (FIG. 27a). The assessment of BrdU incorporation (FIG. 27b, n=10-11) and caspase-3/-7 activation (FIG. 27c, n=3-10) in siRNA-NC/siNRP-1-transfected […] treated with indicated concentration of FOL-026 peptide. The wound closure rate (FIG. 28b) of HCASMCs in siRNA-NC and siNRP-1 group stimulated with increasing concentration of FOL-026 peptide was quantified by image J software (n=9-12 per group). Scale bar=150 um. Data are presented as means±SEM and acquired from 3 to 4 independent replicate tests. *P<0.05, **P<0.01, ***P<0.001, ****P<0.0001 by Student's t test for A, two-way ANOVA followed with Sidak's and Dunnett's multiple comparisons test.
# as §2
# [4] = tested on: human umbilical vascular endothelial cells (HUVECs); assay: In vitro scratch wound closure, HUVECs; conditions: for wound closure rate (scratch injury): HUVECs, increasing concentration of peptide
# Protocol: The impact of FOL-026 peptide on human umbilical vascular endothelial cells (HUVECs) proliferation (FIG. 18a) and apoptosis (FIG. 18c) induced with low-oxygen condition was determined by BrdU uptake (n=8-9 per group) and active caspase-3/-7 (n=7-10 per group) separately. The ROS level (FIG. 18b) activated by 50 ug/ml oxidized Low-density Lipoprotein (oxLDL) for 2 hours in cells pre-incubated with FOL-026 peptides was assessed using H2O2 measurement (n=4-8 per group). Representative pictures of endothelial migration into an in vitro scratch injury were shown (FIG. 19a) and the wound closure rate (FIG. 19b) in HUVECs stimulated with increasing concentration of FOL-026 peptide was quantified by image J software (n=8-9 per group). Scale bar=150 um. Data are presented as means±SEM and acquired from 3 to 4 independent replicate tests. *P<0.05, **P<0.01, ****P<0.0001 by one-way ANOVA and Dunnett's post-hoc test.
# The efficiency of small interfering RNA transfection for 48 hours in HUVECs was confirmed by qRT-PCR (n=4) (FIG. 22a). Effect of FOL-026 peptide stimulation on cell proliferation (FIG. 22b) and cell apoptosis at 0.1% oxygen (FIG. 22c) in HUVECs transfected with siRNA-NC or siNRP-1 was evaluated by BrdU incorporation (n=4-7 per group) and active caspase-3/-7 ((n=4-7 per group). Representative pictures of endothelial cells at 0 and 5 hours after scratch wounding are shown in 23a. The wound closure rate (FIG. 23b) of siRNA-NC/siNRP-1-transfected HUVECs stimulated with increasing concentration of FOL-026 peptide was quantified by image J software (n=9-12 per group). Scale bar=150 um. Data are presented as means±SEM and acquired from 3 to 4 independent replicate tests. *P<0.05, **P<0.01, ***P<0.001, ****P<0.0001 by Student's t test for A, two-way ANOVA followed with Sidak's and Dunnett's multiple comparisons test for B, C and E.
# The effect of FOL-005 peptide on smooth muscle cell proliferation (FIG. 30a) was determined with BrdU incorporation in peptide-treated human coronary smooth muscle cells (HCASMCs). […]
Sequence,"vascular smooth muscle cell proliferation (DNA synthesis, uptake of BrdU, O.D. 450 nm) [1]",sFasL-induced apoptosis (caspase 3 and 7) [2],wound closure (scratch wound assay) [3],wound closure rate (scratch injury) [4],smooth muscle cell proliferation (BrdU incorporation) [1],"wound closure after NRP-1 knock-down (Example 11) ([3]; siRNA-NC/siNRP-1-transfected cells, printed as HUVECs, increasing concentration, 5 hours)","wound closure rate after NRP-1 knock-down ([4]; siRNA-NC/siNRP-1-transfected HUVECs, increasing concentration, 5 hours)","vascular smooth muscle cell proliferation (DNA synthesis, uptake of BrdU, O.D. 450 nm) ([1]; listed as FOL26)",sFasL-induced apoptosis (caspase 3 and 7) ([2]; listed as FOL26)
AEIDSIELSYGIK [FOL56],significant increase in proliferation; also recorded: increases proliferation at all concentrations,"reduced sFasL-induced apoptosis; also recorded: capable of inhibiting, or trended towards inhibiting apoptosis",–,–,–,–,–,–,–
VDTYDGDISVVYGLR [FOL-005],–,–,accelerate HCASMC wound closure,accelerate HUVEC wound closure,increases,–,–,–,–
VDTYDGGISVVYGLR [FOL-026],–,–,accelerates wound closure,accelerates HUVEC wound closure,induces smooth muscle cell proliferation,positive effect on wound closure,positive effect on wound closure,significant increase in proliferation; also recorded: increase in O.D. (450 nm),reduced sFasL-induced apoptosis; also recorded: capable of reversing the sFasL-induced apoptosis
